Laboratory results as given in patent US20190211317A1, “PEPTIDES AND NANOPARTICLES FOR INTRACELLULAR DELIVERY OF GENOME-EDITING MOLECULES” (Aadigen, LLC, priority 2016, published 2019).
Where “and” joins values, the source holds several entries; their conditions need not be identical. Equal entries are not always repeated. Non-standard residues stand in square brackets, D forms with d. Residues, ends and D or L forms follow the SMILES beside them. βAla = NCCC(=O)O

Tests used:
[1] = tested on: EGFP reporter gene in EGFP-U2OS, EGFP-HEK, EGFP-JURKAT cells; assay: EGFP reporter gene disruption from CPP delivery of CAS9:sgRNA (flow cytometry); assay type: cell-based, human; conditions: for reduction of EGFP-positive cells: EGFP-JURKAT; for decrease in EGFP expression: CAS9:gRNA 50 nM, CPP:cargo 20:1; for reduction of EGFP-expressing cells / loss of EGFP expression: JURKAT; for reduction of EGFP-expressing cells / loss of EGFP expression / loss of EGFP expression: 1 nM CAS9:gRNA; for loss of EGFP expression: both cell lines (U2OS, HEK);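 for all read-outs here: cells carrying one integrated EGFP reporter received peptide-complexed CAS9 preloaded 1:1 with EGFP sgRNA, cultured 72 h, then EGFP level read by flow cytometry, lipofectamine 2000 and RNAiMAX as positive controls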
Experimental: Efficacy of CPP-mediated delivery was quantified using a well-established CAS9-induced gene disruption method (Fu et al, 2013, supra), by targeting a specific site in the exogenous EGFP gene reporter in three human cell lines expressing EGFP (GFP-U2OS, EGFP-HEK, EGFP-JURKAT).
Stock solutions of amphipathic peptides were prepared at 1 mg/mL in distilled water and sonicated for 10 min. CAS9 protein was preloaded with purified EGFP sgRNA at a molar ratio of 1:1 and incubated for 10 min prior to forming complexes with the peptides. Preloaded CAS9/gRNA complexes (10 nM, 25 nM, and 50 nM) were mixed with CPPs at 5:1, 10:1 and 20:1 molar ratios of CPP to cargo and incubated for 30 min at 37° C. prior to cell transfection.
Cell line containing a single integrated EGFP reporter gene (GFP-U2OS, EGFP-HEK and EGFP-JURKAT) were cultured in Dulbecco's Modified Eagle's Medium (DMEM), supplemented with 2 mM glutamine, 1% antibiotics (streptomycin 10,000 μg/mL, penicillin, 10,000 IU/mL) and 10% (w/v) foetal calf serum (FCS) at 37° C. in a humidified atmosphere containing 5% CO2. A total of 150,000 cells seeded in a 35 mm dish the day prior to transfection were grown to 50-60% confluence and overlaid with 200 μl of preformed complexes, incubated for 3-5 min, then 400 μl of DMEM was added. After 30 min incubation at 37° C., 1 mL of fresh DMEM containing 16% FCS was added to reach a final FCS concentration of 10%, without removing the overlay of CPP/CAS9-gRNA complexes. Cells were returned to the incubator for 72 hours.
CAS9-induced double-strand break formation was analyzed using flow cytometry by monitoring level of EGFP expression. […] Both lipofectamine 2000 and RNAiMAX delivery methods were used as positive controls.

[2] = tested on: U2OS, HEPG2, K562 cells and primary human fibroblasts; assay: CAS9 protein expression after CPP delivery of CAS9 mRNA (ELISA); assay type: cell-based; conditions: day 3
Experimental: CPP/CAS9 mRNA complexes were formed by mixing the CAS9 mRNA (0.5 μg) with CPP at a 20:1 molar ratio of CPP:CAS9 mRNA and incubating for 30 min at 37° C. prior to cell transfection. Cells were transfected according to optimized protocols for either adherent or suspension cell lines.
Human primary fibroblasts were freshly obtained and grown in flasks pre-coated with a gelatin-based coating solution and incubated in Culture Complete Growth Medium for 3 days before expansion and treatment. U2OS cells were cultured in Dulbecco's Modified Eagle's Medium (DMEM), supplemented with 2 mM glutamine, 1% antibiotics (streptomycin 10,000 μg/mL, penicillin, 10,000 IU/mL) and 10% (w/v) foetal calf serum (FCS), at 37° C. in a humidified atmosphere containing 5% CO2. 35 mm dishes seeded with 150,000 cells the day prior to transfection were grown to 50-60% confluence and set up to be at about 70% confluences at the time of transfection. Before transfection, cells were washed with DMEM (2×) followed by PBS (1×). Cells were then overlaid with 0.2 ml of complex solution (16 μl CPP/Cargo complex in water+184 μl OPTiMEM without antibiotics), mixed gently, and incubated for 10 min at 37° C. 0.8 mL of fresh OPTiMEM or DMEM was then added and cells were incubated for 20 min at 37° C. 2 mL of complete OPTiMEM (high glucose) or DMEM containing 11.4% FCS was then added in order to reach a final FCS concentration of 10%, without removing the overlay of CPP/Cargo complexes. Cells were returned to the incubator (37° C., 5% CO2) and assayed at 72 hours post transfection.
K562 and HEpG2 cells were set up to be at about 70% confluence at the time of transfection. The cells were maintained in high glucose DMEM media with 10% serum. Before transfection, cells were harvested by centrifugation, then washed with DMEM (2×) followed by PBS (1×). Cells were then resuspended in 0.2 ml of complex solution (16 μl CPP/Cargo complex in water+184 μl OPTiMEM without antibiotics), mixed gently, and incubated for 10 min at 37° C. 0.8 mL of fresh OPTiMEM was then added and cells were incubated for 20 min at 37° C. 2 mL of complete OPTiMEM (high glucose) containing 11.4% FCS was then added in order to reach a final FCS concentration of 10%, without removing the overlay of CPP/Cargo complexes. Cells were returned to the incubator (37° C., 5% CO2) and assayed at 72 hours post transfection.
RNAiMAX lipid-based delivery (Invitrogen Thermo Fisher France) was used as a control and transfections were performed following the manufacturer's instructions. CAS9 expression level was analyzed at multiple time points over a period of 10 days as determined by ELISA on protein extracts using antibodies against CRISPR/Cas9 obtained from Diagenode (Diagenode cat. No. C15200223) and ABCAM (clone 7A9-ab191468).

[3] = tested on: endogenous EMX1 gene in U2OS, HEPG2, K562 cells and primary human fibroblasts; assay: EMX1 editing from CPP delivery of CAS9 mRNA/gRNA (T7E1); assay type: cell-based
Experimental: CPP/CAS9 mRNA/gRNA complexes were formed by mixing the CAS9 mRNA (0.5 μg) and gRNA (5 μg) with CPP at a 20:1 molar ratio of CPP:cargo and incubating for 30 min at 37° C. prior to cell transfection. Suspension and adherent cells were transfected according to the protocols described in Example 13a. RNAiMAX-mediated delivery (Invitrogen Thermo Fisher France) was used as a control. EMX1 gene editing was analyzed at day 3 and day 6 by T7E1 assay and quantified using a Fragment Analyzer System.

[4] = tested on: endogenous EMX1 gene in U2OS, HEPG2, K562 cells and primary human fibroblasts; assay: EMX1 editing from CPP delivery of CAS9 protein/gRNA (T7E1); assay type: cell-based; conditions: each of the cell types tested; 2.5 μg/5 μg CAS9/gRNA
Experimental: CPP/CAS9/gRNA complexes were prepared by mixing preloaded CAS9/gRNA complexes (2.5 μg/5 μg CAS9/gRNA) with CPP peptides at a 20:1 molar ratio of CPP to cargo and incubating for 30 min at 37° C. prior to cell transfection. Cells were transfected according to the protocols described in Example 13a, and RNAiMAX-mediated delivery (Invitrogen Thermo Fisher France) was used as a control. EMX1 gene editing was analyzed at day 3 and day 6 by T7E1 assay and quantified using a Fragment Analyzer System.

[5] = tested on: U2OS and HEPG2 cell lines and primary human fibroblasts; assay: CAS9 protein expression after CPP delivery of CAS9-expressing plasmid (ELISA); assay type: cell-based; conditions: day 6
Experimental: CPP/plasmid complexes were prepared by mixing 0.5 μg of a CAS9-expressing plasmid (Addgene MLM3639-Plasmid #42252) with CPP at a 20:1 molar ratio of CPP:cargo and incubating for 30 min at 37° C. prior to cell transfection. Cells were transfected according to the protocols for adherent and suspension cells described in Example 13a. Lipofectamine 2000 was used as lipid-based delivery control. CAS9 protein expression level was analyzed at multiple time points over a period of 10 days as determined by ELISA on protein extracts using antibodies against CRISPR/Cas9 obtained from Diagenode (Diagenode cat. No. C15200223) and ABCAM (clone 7A9-ab191468).

Swiss mice = assay: In vivo delivery of CAS9 mRNA by three CPPs: CAS9 expression in tissues (ELISA); design: species or system mouse; conditions: for ELISA signal for CAS9 protein expression: day 3 and day 6, CAS9 mRNA 5 μg i.v., 20:1; for CAS9 protein expression: other tissues examined
Experimental: Free CAS9 mRNA in physiological buffer was injected as a control.
At day 3, day 6, and day 10 following injection, animals were sacrificed and tissues including lung, liver, brain, kidney, heart, spleen, blood, pancreas, muscle, bone marrow, and intestine were collected. Tissues were homogenized and CAS9 protein levels in protein extracts were analyzed by ELISA using an antibody against CRISPR/Cas9 (SBI clone 7A9).

PCSK9 = assay: In vivo CAS9 mRNA/gRNA targeting PCSK9: serum PCSK9 (ELISA); design: species or system mouse
Experimental: Polyadenylated and capped CAS9 mRNA was obtained from ThermoFisher, and gRNA (5 μg) targeting PCSK9 Exon 1 was obtained from Eurogentec. […] Free CAS9 mRNA/gRNA was injected as a control.
Blood samples were collected by saphenous vein bleeds at multiple time points (day 3, 6, 10, and 21), collecting no more than 100 μl or 10% of total blood volume per week. Serum levels of PCSK9 were determined by ELISA using the Mouse Proprotein Convertase 9/PCSK9 Quantikine ELISA Kit (MPC-900, R&DSystems).

primary human T cells = assay: CAS9 protein expression in primary human T cells after CAS9 mRNA or plasmid delivery (ELISA); assay type: cell-based; conditions: day 3
Experimental: T cells were isolated from PBMCs using anti-CD3/anti-CD28 antibodies bound to paramagnetic beads (Dynabeads ClinExVivo CD3/CD28, Invitrogen) at a ratio of 3:1 (beads:cells). The cells and beads were co-incubated for 2 hours at room temperature and CD3^+ cell enrichment was performed using Dynal ClinExVIVO MPC magnet (Thermo Fisher). The anti-CD3/anti-CD28 paramagnetic beads were removed, washed and concentrated. Cells in the CD3^+ fraction were resuspended in activation media at a concentration of 1×10^6 cells/ml with AIM-V medium (Thermo Fishers) supplemented with 10% fetal calf serum, 300 IU/ml IL2 and 50 ng/ml OKT3 (MuromonAB-CD3) for two days.
CPP/CAS9 complexes were formed by mixing the CAS9 mRNA (0.5 μg) with CPP at a 20:1 molar ratio of CPP:CAS9 mRNA and incubating for 30 min at 37° C. prior to cell transfection. CPP/CAS9-expressing plasmid complexes were formed by mixing the CAS9-expressing plasmid (Addgene MLM3639-Plasmid #42252) (0.5 μg) with CPP at a 20:1 molar ratio of CPP:plasmid and incubating for 30 min at 37° C. prior to cell transfection.
Cells were transfected according to the protocol for suspension cells described in Example 13a. RNAiMAX and lipofectamine 2000 lipid-based delivery methods (Invitrogen Thermo Fisher France) were used as controls, and transfections were performed following the manufacturer's instructions. CAS9 protein expression level was analyzed at multiple time points over a period of 10 days as determine by ELISA on protein extracts using antibodies against CRISPR/Cas9 obtained from Diagenode (Diagenode cat. No. C15200223) and ABCAM (clone 7A9-ab191468).

[6] = tested on: endogenous EMX1 gene in primary human T cells; assay: EMX1 editing in primary human T cells with CAS9 mRNA, protein or plasmid plus gRNA (T7E1); assay type: cell-based
Experimental: CPP/CAS9 mRNA/gRNA complexes were formed by mixing the CAS9 mRNA (0.5 μg) and gRNA (5 μg) with CPP at a 20:1 molar ratio of CPP to nucleic acid (mRNA+gRNA) and incubating for 30 min at 37° C. prior to cell transfection. CPP/plasmid/gRNA complexes were formed by mixing CAS9 expressing plasmid (Addgene MLM3639-Plasmid #42252) (0.5 μg) and gRNA (5 μg) with CPP at a 20:1 molar ratio of CPP to nucleic acid (plasmid+gRNA) and incubating for 30 min at 37° C. prior to cell transfection. CPP/CAS9/gRNA complexes were formed by mixing preloaded CAS9/gRNA complexes (2.5 μg/5 μg CAS9/gRNA) with CPP at a 20:1 molar ratio of CPP to complex and incubating for 30 min at 37° C. prior to cell transfection.
T cells were transfected according to the protocol for suspension cells described in Example 13a. Lipofectamine 2000- and RNAiMAX-mediated delivery methods (Invitrogen Thermo Fisher France) were included as controls. EMX1 gene editing was analyzed at day 3, day 6, and day 10 by T7E1 assay and quantified using a Fragment Analyzer System.

[7] = Particle size, polydispersity and zeta potential with different cargoes (Zetasizer NANO ZS P); assay type: physicochemical; conditions: 20:1; for formation of stable nanoparticles: with CAS9-mRNA and CAS9-mRNA/gRNA complex
Experimental: The CPP/CAS9-protein, CPP/CAS9-protein/sgRNA, CPP/CAS9-mRNA, CPP/CAS-mRNA/sgRNA particles were characterized; the mean size, polydispersity, and zeta potential were measured with a Zetasizer NANO ZS P apparatus (Malvern Ltd).
The mean size and the polydispersity of the CCP/cargo complexes were determined at 25° C. for 5 min per measurement and zeta potential was measured with a Zetasizer NANO ZS P apparatus (Malvern Ltd).

[8] = CPP/CAS9 and CPP/CAS9:gRNA particle size, polydispersity, zeta potential (Zetasizer 4); assay type: physicochemical
Experimental: The CPP/CAS9 and CPP/CAS9/sgRNA particles were further characterized; the mean size, polydispersity and zeta potential were measured with Zetasizer 4 apparatus (Malvern Ltd). […] The mean size and the polydispersity of the CCP/CAS9 and CCP/CAS9:gRNA complexes were determined at 25° C. for 3 min per measurement and zeta potential was measured with Zetasizer 4 apparatus (Malvern Ltd).

[9] = tested on: endogenous EMX1 gene in U2OS, JURKAT and K562 cells; assay: EMX1 gene editing from CPP delivery of CAS9/gRNA (T7E1 assay); assay type: cell-based, human
Experimental: RNAiMAX delivery was used as a positive control as it was previously reported to show better results than Lipofectamine 2000 (Zuris et al., 2015, supra). […] Cells were returned to the incubator for 72 hours.

[10] = tested on: endogenous EMX1 and exogenous EGFP reporter genes in GFP-U2OS, EGFP-JURKAT cells; assay: Delivery of multiple RGEN/gRNA complexes: EMX1 and EGFP editing; assay type: cell-based, human
Experimental: RNAiMAX delivery was used as positive control. Cells were treated as described previously and CAS9-induced NHEJ analyzed 72 hr after transfection. […] The deletion (indel) frequency in the EMX1 gene was quantified using the T7E1 assay and loss of EGFP expression was monitored by flow cytometry. Data for on-target mutations induced by RGEN/gRNA are reported as an average of 3 separate experiments.

[11] = tested on: endogenous EMX1 gene in U2OS, HEPG2 cells and primary human fibroblasts; assay: EMX1 editing from CPP delivery of CAS9-expressing plasmid and gRNA (T7E1); assay type: cell-based; conditions: the three cell types
Experimental: EMX1-targeting gRNAs were prepared as described above. CPP/plasmid/gRNA complexes were prepared by mixing 0.5 μg of a CAS9-expressing plasmid (Addgene MLM3639-Plasmid #42252) and 5 μg gRNA with CPP at a 20:1 molar ratio of CPP to nucleic acid (plasmid+gRNA) and incubating for 30 min at 37° C. prior to cell transfection. Suspension and adherent cells were transfected according to the protocols described in Example 13a. Lipofectamine 2000- and RNAiMAX-mediated delivery methods (Invitrogen Thermo Fisher France) were used as controls. EMX1 gene editing was analyzed at day 3 and day 6 by T7E1 assay and quantified using a Fragment Analyzer System.

[12] = day 1, CAS9 mRNA 5 μg/gRNA 5 μg single i.v.
[13] = CAS9-expressing plasmid and gRNA, day 3
[14] = with CAS9-mRNA and CAS9-mRNA/gRNA

In the case of `CC(C)C[C@H](NC(=O)CCN)C(=O)N[C@@H](Cc1c[nH]c2ccccc12)C(=O)N[C@@H](CCCNC(=N)N)C(=O)N[C@@H](C)C(=O)N[C@@H](CC(C)C)C(=O)N[C@@H](Cc1c[nH]c2ccccc12)C(=O)N[C@@H](CCCNC(=N)N)C(=O)N[C@@H](CC(C)C)C(=O)N[C@@H](Cc1c[nH]c2ccccc12)C(=O)N[C@@H](CCCNC(=N)N)C(=O)N[C@@H](CO)C(=O)N[C@@H](CC(C)C)C(=O)N[C@@H](Cc1c[nH]c2ccccc12)C(=O)N[C@@H](CCCNC(=N)N)C(=O)N[C@@H](CC(C)C)C(=O)N[C@@H](CC(C)C)C(=O)N[C@@H](Cc1c[nH]c2ccccc12)C(=O)N[C@@H](CCCCN)C(=O)N[C@@H](C)C(=O)O` [VEPEP-6] (H-[βAla]LWRALWRLWRSLWRLLWKA-OH; N-terminus and C-terminus assumed), the “reduction of EGFP-positive cells” value [1] is reported as “no significant change”, the “decrease in EGFP expression” value ([1]; HEK) is reported as 30% and the “reduction of EGFP-expressing cells / loss of EGFP expression” value [1] is reported as “no change in EGFP expression”. The “decrease in EGFP expression” value ([1]; U2OS) was 25%, the “loss of EGFP expression” value [1] was “no change in EGFP expression” and the “ELISA signal for CAS9 protein expression” value ([2]; U2OS, K562, HepG2, CAS9 mRNA 0.5 μg) was about 30 times the background. The “ELISA signal for CAS9 protein expression” value ([2]; primary human fibroblasts) was “about 20 times the background”, the mean indel frequencies [3] was “about 60%” and the mean indel frequencies [4] was “no significant EMX1 gene editing”. The “ELISA signal for CAS9 protein expression” value ([5]; U2OS and HEPG2) was “about 4 times the background”, the “ELISA signal for CAS9 protein expression” value ([5]; primary human fibroblasts) was “about 2 times the background” and the CAS9 expression (Swiss mice; day 10, brain) was “CAS9 expression was observed”. The CAS9 expression (Swiss mice; day 10, liver) was “CAS9 expression was observed”, the CAS9 expression (Swiss mice; day 10, lung) was “CAS9 expression was observed” and the “ELISA signal for CAS9 protein expression” value (Swiss mice; liver) was > 15 times that of background. For the same compound, the CAS9 expression (Swiss mice; lung) was “about 8 times that of background”, the CAS9 protein expression (Swiss mice) was “Little to no increase” and the “decrease of serum levels of PSCK9” value (PCSK9; [12]) was 64%. For the same compound, the “decrease of serum levels of PSCK9” value (PCSK9; day 3) was 73%, the “decrease of serum levels of PSCK9” value (PCSK9; day 6) was 75% and the “decrease of serum levels of PSCK9” value (PCSK9; day 10) was 73%. For the same compound, the “decrease of serum levels of PSCK9” value (PCSK9; day 14) was 71%, the “decrease of serum levels of PSCK9” value (PCSK9; day 20) was 70% and the “ELISA signal for CAS9 protein expression” value (primary human T cells; CAS9-expressing plasmid 0.5 μg) was “little to no CAS9 expression”. For the same compound, the “ELISA signal for CAS9 protein expression” value (primary human T cells; CAS9 mRNA 0.5 μg) was about 17 times the background, the mean indel frequencies [6, 13] was “little to no EMX1 gene editing” and the mean indel frequencies ([6]; CAS9 protein/gRNA) was “little to no EMX1 gene editing”. The “formation of stable nanoparticles” value [7] was “able to form stable nanoparticles”, the Mean diameter [7, 14] was about 100 nm and the “polydispersity index (PI)” value [7, 14] was 0.2.

With `CC(C)C[C@H](NC(=O)CCN)C(=O)N[C@@H](CCCNC(=N)N)C(=O)N[C@@H](Cc1c[nH]c2ccccc12)C(=O)N[C@@H](Cc1c[nH]c2ccccc12)C(=O)N[C@@H](CC(C)C)C(=O)N[C@@H](CCCNC(=N)N)C(=O)N[C@@H](Cc1c[nH]c2ccccc12)C(=O)N[C@@H](C)C(=O)N[C@@H](CO)C(=O)N[C@@H](CCCNC(=N)N)C(=O)N[C@@H](Cc1c[nH]c2ccccc12)C(=O)N[C@@H](Cc1ccccc1)C(=O)N[C@@H](CO)C(=O)N[C@@H](CCCNC(=N)N)C(=O)N[C@@H](Cc1c[nH]c2ccccc12)C(=O)N[C@@H](C)C(=O)N[C@@H](Cc1c[nH]c2ccccc12)C(=O)N[C@@H](Cc1c[nH]c2ccccc12)C(=O)N[C@@H](CCCNC(=N)N)C(=O)O` [VEPEP-9] the PI ([8]; Cas9:gRNA, molar ratio 20/1) was 0.58 and 0.58 ± 0.1, the Size ([8]; Cas9:gRNA, molar ratio 20/1) was 170±10 nm and the zeta ([8]; Cas9:gRNA, molar ratio 20/1) was 39 ± 8 MV. It also gave a Pt ([8]; Cas9, molar ratio 20/1) of 0.45 ± 0.1, a Size ([8]; Cas9, molar ratio 20/1) of 280 ± 20 nm and a zeta ([8]; Cas9, molar ratio 20/1) of 32 ± 5 mV. The “formation of stable particles with preloaded CAS9:gRNA complex” value ([8]; molar ratio 10:1) was “neither CADY nor VEPEP-9 formed stable particles”, the “reduction of EGFP-positive cells” value [1] was 22% and the “decrease in EGFP expression” value ([1]; HEK) was 58%. The “reduction of EGFP-expressing cells / loss of EGFP expression” value [1] was “no change in EGFP expression”, the “decrease in EGFP expression” value ([1]; U2OS) was 55% and the “loss of EGFP expression” value [1] was 5%. For the same compound, the “Mean indel Frequency ± S.E.M” value ([9]; JURICAT, CAS9/sgRNA 25 nM) was 21% and 21 ± 7%, the “Mean indel Frequency ± S.E.M” value ([9]; JURKAT, CAS9/sgRNA 50 nM) was 21 ± 5% and the “Mean indel Frequency ± S.E.M” value ([9]; K562, CAS9/sgRNA 25 nM) was 29% and 29 ± 7%. The “Mean indel Frequency ± S.E.M” value ([9]; K562, CAS9/sgRNA 50 nM) was 25 ± 5%, the “Mean indel Frequency ± S.E.M” value ([9]; U2OS, CAS9/sgRNA 25 nM, 20:1) was 27% and 27 ± 3% and the “Mean indel Frequency ± S.E.M” value ([9]; U2OS, CAS9/sgRNA 50 nM) was 30 ± 6%. For the same compound, the “Mean indel Frequency ± S.E.M” value ([10]; JURKAT, EGFP) was 15 ± 8%, the “Mean indel Frequency ± S.E.M” value ([10]; JURKAT, EMX1) was 10 ± 2% and the “Mean indel Frequency ± S.E.M” value ([10]; U2OS, EGFP, 25 nM each complex) was 32 ± 4%. The “Mean indel Frequency ± S.E.M” value ([10]; U2OS, EMX1) was 31 ± 5%, the mean indel frequencies [3] was “about 10%” and the mean indel frequencies [11] was 35-40%. For the same compound, the CAS9 expression (Swiss mice; day 10, brain) was “CAS9 expression was observed”, the CAS9 expression (Swiss mice; day 10, liver) was “CAS9 expression was observed” and the CAS9 expression (Swiss mice; day 10, lymph node) was “CAS9 expression was observed”. The “ELISA signal for CAS9 protein expression” value (Swiss mice; liver) was > 8 times that of background, the CAS9 protein expression (Swiss mice) was “Little to no increase” and the “decrease of serum levels of PSCK9” value (PCSK9; [12]) was 13%. For the same compound, the “decrease of serum levels of PSCK9” value (PCSK9; day 3) was 29%, the “decrease of serum levels of PSCK9” value (PCSK9; day 6) was 31% and the “decrease of serum levels of PSCK9” value (PCSK9; day 10) was 27%. The “decrease of serum levels of PSCK9” value (PCSK9; day 14) was 25%, the “decrease of serum levels of PSCK9” value (PCSK9; day 20) was 24% and the “ELISA signal for CAS9 protein expression” value (primary human T cells; CAS9-expressing plasmid 0.5 μg) was “about 4 times the background”. For the same compound, the “ELISA signal for CAS9 protein expression” value (primary human T cells; CAS9 mRNA 0.5 μg) was “about 4 times the background”, the mean indel frequencies [6, 13] was “about 30%” and the mean indel frequencies ([6]; CAS9 protein/gRNA) was “about 20%”. The “formation of stable nanoparticles” value [7] was “able to form stable nanoparticles”, the Mean diameter [7, 14] was about 120 nm and the mean particle size ([7]; with preloaded CAS9-protein/gRNA complex) was 210±20.
